Results from article PMC3466213, “Discovery of Novel Orally Active Anti-Inflammatory N-Phenylpyrazolyl-N-Glycinyl-Hydrazone Derivatives That Inhibit TNF-α Production” (PLoS ONE, 2012).
“Also recorded” adds a separate entry of the source.

What was measured:
[1] = tested on: TNF-α production; test: LPS-induced TNF-α production in culture of mice peritoneal macrophage (ELISA); assay type: cell-based; conditions: for inhibition at 10 µM: read-out: TNF-α Inhibition, % inhibition at 10 µM, mouse peritoneal macrophages, 10 µM, vs vehicle (DMSO), n = 3; for IC50: mouse peritoneal macrophages, at least five concentrations, range tested in parentheses, read-out: TNF-α Inhibition IC50
Method: BALBc mice were stimulated with thyoglicollate 3% (1 mL/mice; i.p.) and 3 days later the peritoneal cavity were washed with RPMI 1640 and the peritoneal macrophages were plated onto 96-wells plate (30.000 cells/well) for 1 hour at 37°C in an humidified 5% CO2 atmophere. Then, macrophages were incubated with the vehicle or compounds and 1 hour later stimulated with LPS (100 ng/mL) for 24 hour when the supernatants were collected to evaluate TNF-α production by ELISA kit (BD Bioscience).

[2] = Cell viability by MTT assay; assay type: cell-based; conditions: mouse, murine peritoneal macrophages, vs vehicle (DMSO)
Method: The peritoneal macrophage were obtained and plated as described above. The cells were incubated with the vehicle or compounds for 20 hours when was added 20 µl of MTT (3-(4,5-dimethylthiazol-2-yl)-2,5-diphenyltetrazolium bromide) solution (5 mg/mL), followed by 4 hour of incubation. Then, the culture mediums were collected and the precipitates were solubilized in 200 µl of DMSO. The optical density was measured at 490 nm.

[3] = target: p38α MAPK (Homo sapiens, UniProt Q16539); test: In vitro p38α MAPK activity inhibition (nonradioactive immunosorbent assay, ref 23); assay type: biochemical
Method: Because the novel N-acylhydrazone derivatives 4a–g were designed based on the p38α MAPK inhibitor BIRB-796 (3), they were all evaluated for their in vitro capacity to inhibit p38α MAPK activity at a concentration of 10 µM.
*This assay was performed as described in reference 23.

[4] = tested on: carrageenan-induced thermal hypernociception; test: Carrageenan-induced thermal hypernociception (modified hot-plate test); assay type: in vivo, rat; conditions: rats, 100 µmol/kg p.o.
Method: (§1) Wistar rats of both sexes (150–200g) were used. The compounds were administered orally (100 µmol.5mL-1.kg-1) as a suspension in 5% arabic gum in saline (vehicle). Control animals received an equal volume of vehicle. One hour later, the animals were injected with either 0.1 ml of 1% carrageenan solution in saline or sterile saline (NaCl 0.9%), into the subplantar surface of one of the hind paws. The thermal hypernociception was determined using the modified hot-plate test. Rats are placed individually on a hot plate with the temperature adjusted to 51°C. The latency of the withdrawal response of the left hind paw is determined at 0, 30, 60, 120, 180, and 240 min post-challenge. The time of maximum permanence permitted on the hot surface is 20 s. Hypernociception to heat is defined as a decrease in withdrawal latency and calculated as follows: Δ paw withdrawal latency (s) = (left paw withdrawal latency at time 0) – (left paw withdrawal latency at the others times).

[5] = tested on: TNF-α level in carrageenan-injected paws; test: TNF-α level in carrageenan-injected paws (ELISA); assay type: in vivo; conditions: rat paw, 4 h after carrageenan, 100 µmol/kg p.o.
Method: as §1
The paw was homogenized 4 h after intraplantar injection of carrageenan, and the level of TNF-α in the supernatant was determined by ELISA.

[6] = Rat liver microsomal stability; assay type: in vitro ADME; conditions: 50 µM, 37 °C, 1 mg/mL protein
Method: The incubation was conducted at 37°C for 60 min. The experiments contains MgCl2 (1.3 mM), NADP+ (0.4 mM), glucose-6-phosphate (3.5 mM), 0.5 U/mL glucose-6-phosphate dehydrogenase in a phosphate buffer (0.1 M, pH 7.4) containing EDTA (1.5 mM) and the test compounds were added at final concentration of 50 µM with 0.25 mL of final volume. After the pre-warming of the mixture at 37 °C, the microsomal proteins were added to give a final protein concentration of 1 mg/mL. At the end of the incubation time the reaction was stopped by the addition of 375 µL of MeOH and 375 µL of CH3CN. The experiments were performed in duplicate. The samples were centrifuged and filtered for HPLC-UV analysis.
(§2) The organic fraction was analyzed with the Shimadzu Prominence HPLC system (Shimadzu, Tokio, Japan) consisting of a vacuum degasser (DGU-20A5), a binary pump (LC-20AD), a autosampler (SIL-20A), UV/VIS Photodiode Array Detector (SPD-M20A) and fitted with a guard column (CLC G-ODS) and a Shimadzu (CLC-ODS, M) column (250 mm×4.6 mm i.d.) running at room temperature. Isocratic elution was performed with acetonitrile-water (40∶60 v/v), at a flow rate set at 1 mL/min. The mobile phase pH was adjusted to 8.0 with NH4OH solution. The detection was carried out at 285 nm and 330 nm wavelength for compound 4f and 4a, respectively.

[7] = Rat plasma stability; assay type: in vitro ADME; conditions: 50 µM; for % Recovered amount after 60 min, rat plasma: 37 °C
Method: The rat plasma was obtained from blood by centrifugation and diluted in phosphate buffer (pH 7.4). The test compounds were added at final concentration of 50 µM with 0.25 mL of final volume and incubated at 37°C for 60 min under agitation. At the end of the incubation time the reaction was stopped by the addition of 375 µL of MeOH and 375 µL of CH3CN. The experiments were performed in duplicate. The samples were centrifuged and filtered for HPLC-UV analysis.
as §2

[8] = Aqueous solubility in phosphate buffer (HPLC-UV); assay type: physicochemical
Method: as §2

Chain of p38α MAPK (Q16539 whole entry): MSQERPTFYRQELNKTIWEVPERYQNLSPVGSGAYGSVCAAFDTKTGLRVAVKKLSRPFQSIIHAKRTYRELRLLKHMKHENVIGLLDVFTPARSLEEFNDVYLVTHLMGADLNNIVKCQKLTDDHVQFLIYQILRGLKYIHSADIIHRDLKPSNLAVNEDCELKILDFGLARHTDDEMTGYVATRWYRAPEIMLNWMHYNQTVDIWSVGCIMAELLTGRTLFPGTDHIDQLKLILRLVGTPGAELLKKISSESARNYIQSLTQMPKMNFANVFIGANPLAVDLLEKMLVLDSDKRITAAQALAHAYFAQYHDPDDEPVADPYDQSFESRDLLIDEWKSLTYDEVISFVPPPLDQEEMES

| SMILES | IC50 [1] [µM] | inhibition at 10 µM [3] [%] | melting point [°C] | % Recovered amount after 60 min, rat liver microsomes [6] [%] | % Recovered amount after 60 min, rat plasma [7] [%] | Improvement in aqueous solubility at pH 6.4 (versus pH 7.4) ([8]; pH 6.4 compared with pH 7.4) | Improvement in solubility of 4a compared with 4f at pH 6.4 ([8]; phosphate buffer pH 6.4, 37 °C, 24 h) | Improvement in solubility of 4a compared with 4f at pH 7.4 ([8]; phosphate buffer pH 7.4, 37 °C, 24 h) | Resistance to plasma degradation relative to 4f ([7]; rat plasma, 60 min) | inhibition at 10 µM [1] [%] | viability at 20 h, 3 µM [2] [%] | viability at 20 h, 10 µM [2] [%] | Anti-hypernociceptive effect (in words) [4] | Suppression of the elevation of tissue TNF-α level [5] [%] |
| --- | --- | --- | --- | --- | --- | --- | --- | --- | --- | --- | --- | --- | --- | --- |
| C[S+]([O-])c1ccc(-c2nc(-c3ccncc3)c(-c3ccc(F)cc3)[nH]2)cc1 (centres unmarked) [SB-203580 (1), SB-203580, reference compound] |  |  |  |  |  |  |  |  |  | 90 | 100 | 44.3 |  |  |
| CN(CC(=O)N/N=C/c1ccccc1)c1cc(C(C)(C)C)nn1-c1ccccc1 [Compound 15, (E)-N’-benzylidene-2-((3-tert-butyl-1-phenyl-1H-pyrazol-5-yl)(methyl)amino)acetohydrazide] |  |  | 156 to 158 |  |  |  |  |  |  |  |  |  |  |  |
| CC(C)=NNC(=O)CNc1cc(C(C)(C)C)nn1-c1ccccc1 [Compound 9, 2-(3-tert-butyl-1-phenyl-1H-pyrazol-5-ylamino)-N’-(propan-2-ylidene)acetohydrazide] |  |  | 181 to 183 |  |  |  |  |  |  |  |  |  |  |  |

Now from value to compound, other results behind:

| IC50 [1] [µM] | inhibition at 10 µM [3] [%] | melting point [°C] | % Recovered amount after 60 min, rat liver microsomes [6] [%] | % Recovered amount after 60 min, rat plasma [7] [%] | Improvement in aqueous solubility at pH 6.4 (versus pH 7.4) ([8]; pH 6.4 compared with pH 7.4) | Improvement in solubility of 4a compared with 4f at pH 6.4 ([8]; phosphate buffer pH 6.4, 37 °C, 24 h) | Improvement in solubility of 4a compared with 4f at pH 7.4 ([8]; phosphate buffer pH 7.4, 37 °C, 24 h) | Resistance to plasma degradation relative to 4f ([7]; rat plasma, 60 min) | SMILES | inhibition at 10 µM [1] [%] | viability at 20 h, 3 µM [2] [%] | viability at 20 h, 10 µM [2] [%] | Anti-hypernociceptive effect (in words) [4] | Suppression of the elevation of tissue TNF-α level [5] [%] |
| --- | --- | --- | --- | --- | --- | --- | --- | --- | --- | --- | --- | --- | --- | --- |
| 5.5 | 19.7 | 140 |  |  |  |  |  |  | CC(C)(C)c1cc(NCC(=O)N/N=C/c2cccc3ccccc23)n(-c2ccccc2)n1 [Compound 4c, (E)-2-(3-tert-butyl-1-phenyl-1H-pyrazol-5-ylamino)-N’-(naphthalen-1-ylmethylene)acetohydrazide] | 61.2 | 100 | 90.4 |  |  |
| 1.6 | 15.3 |  | 86.7 | 13.3 |  |  |  |  | CC(C)(C)c1cc(NCC(=O)N/N=C/c2ccc(Cl)cc2)n(-c2ccccc2)n1 [Compound 4f, (E)-2-(3-tert-butyl-1-phenyl-1H-pyrazol-5-ylamino)-N’-(4-chlorobenzylidene)acetohydrazide] | 93.2 | 100 | 46.6 | comparable to SB-203580; also recorded: partially inhibit this response | 55.8 |
|  | ~30 |  |  |  |  |  |  |  | CC(C)(C)c1cc(NCC(=O)N/N=C/c2ccc(O)cc2)n(-c2ccccc2)n1 [Compound 4e, (E)-2-(3-tert-butyl-1-phenyl-1H-pyrazol-5-ylamino)-N’-(4-hydroxybenzylidene)acetohydrazide] | 8.1 | 100 | 97.8 |  |  |
| 4.3 | ~30 | 270 |  |  |  |  |  |  | CC(C)(C)c1cc(NCC(=O)N/N=C/c2ccc(O)c3ccccc23)n(-c2ccccc2)n1 [Compound 4b, (E)-2-(3-tert-butyl-1-phenyl-1H-pyrazol-5-ylamino)-N’-((4-hydroxynaphthalen-1-yl)methylene)acetohydrazide] | 75.4 | 100 | 100 |  |  |
|  | 16.4 | 158 |  |  |  |  |  |  | CC(C)(C)c1cc(NCC(=O)N/N=C/c2ccc(OCCN3CCOCC3)cc2)n(-c2ccccc2)n1 [Compound 4d, (E)-2-(3-tert-butyl-1-phenyl-1H-pyrazol-5-ylamino)-N’-(4-(2-morpholinoethoxy)benzylidene)acetohydrazide] | 52.5 | 100 | 100 |  |  |
| 3.6 | -5.35 | 180 | 90.1 | 40.7 | ca. three | ca. 12 times | ca. 5 times | about four | CC(C)(C)c1cc(NCC(=O)N/N=C/c2ccc(OCCN3CCOCC3)c3ccccc23)n(-c2ccccc2)n1 [Compound 4a, (E)-2-(3-tert-butyl-1-phenyl-1H-pyrazol-5-ylamino)-N’-((4-(2-morpholinoethoxy)naphthalen-1-yl)methylene)acetohydrazide] | 96.9 | 100 | 61.5 | comparable to SB-203580; also recorded: completely inhibit the hypernociceptive response | 57.3 |
|  | 19.5 |  |  |  |  |  |  |  | CC(C)(C)c1cc(NCC(=O)N/N=C/c2ccccc2)n(-c2ccccc2)n1 [Compound 4g, (E)-N’-benzylidene-2-(3-tert-butyl-1-phenyl-1H-pyrazol-5-ylamino)acetohydrazide] | 50.4 | 100 | 99.8 |  |  |
